# In US11491245B2, “Gadolinium chelate compounds for use in magnetic resonance imaging” (BAYER PHARMA AKTIENGESELLSCHAFT, priority 2015, dated 2022):
# Columns and labels:
# [1] = Pharmacokinetic parameters in rats (blood plasma kinetic); assay type: in vivo, male rats (Han-Wistar)
# Method: Pharmacokinetic parameters of the compound of Example 3 were determined in male rats (Han-Wistar, 220-230 g, n=3). The compound was administered as a sterile aqueous solution (52.5 mmol Gd/L) as a bolus in the tail vein of the animals. The dose was 0.1 mmol Gd/kg. Blood was sampled 1, 3, 5, 10, 15, 30, 60, 90, 120, 240, 360, 480 and 1440 min post injection and the Gd concentration was determined by Inductively Coupled Plasma Mass Spectroscopy (ICP-MS Agilent 7500a, Waldbronn, Germany). The blood level was converted to plasma concentrations by division by 0.625 (plasma fraction of rat blood, assuming strictly extracellular distribution). As a control, 3 animals were treated in the same way with Gadovist®, a low molecular weight contrast agent.
# The fit of the obtained data to a three compartment model (Phoenix—WinNonlin) yielded the pharmacokinetic parameters which are shown in Table 3.
# [2] = Chemical stability (autoclaving at 121° C.); assay type: physicochemical; conditions: 5 mmol Gd/L in 10 mM Tris-HCl buffer, pH 7.4, 121° C. for 20 min
# [3] = male rats, 0.1 mmol Gd/kg bolus tail vein, mean
# [4] = male rats, 0.1 mmol Gd/kg bolus tail vein, three compartment model, mean
smiles,measurement,setting,value
"CC(C(=O)NCC(=O)NCC(CNC(=O)CNC(=O)C(C)N1CCN(CC(=O)[O-])CCN(CC(=O)[O-])CCN(CC(=O)[O-])CC1)(CNC(=O)CNC(=O)C(C)N1CCN(CC(=O)[O-])CCN(CC(=O)[O-])CCN(CC(=O)[O-])CC1)CNC(=O)CNC(=O)C(C)N1CCN(CC(=O)[O-])CCN(CC(=O)[O-])CCN(CC(=O)[O-])CC1)N1CCN(CC(=O)[O-])CCN(CC(=O)[O-])CCN(CC(=O)[O-])CC1.[Gd+3].[Gd+3].[Gd+3].[Gd+3] (centres unmarked) [Example 3, Tetragadolinium [4,10-bis(carboxylatomethyl)-7-{3,6,12,15-tetraoxo-16-[4,7,10-tris-(carboxylatomethyl)-1,4,7,10-tetraazacyclododecan-1-yl]-9,9-bis({[({2-[4,7,10-tris-(carboxylatomethyl)-1,4,7,10-tetraazacyclododecan-1-yl]propanoyl}amino)acetyl]-amino}methyl)-4,7,11,14-tetraazaheptadecan-2-yl}-1,4,7,10-tetraazacyclododecan-1-yl]acetate]",AUC∞ Area under the curve (to infinity),[1]; [3],9040 µmol·min/L
same,MRT Mean residence time,[1]; [3],24.1 min
same,"V1 + V2 Volume, compartments V1 + V2",[1]; [3],0.26 L/kg
same,"V2 Volume, compartment V2",[1]; [3],0.15 L/kg
same,"Vc (V1) Volume, central compartment V1",[1]; [3],0.11 L/kg
same,"Vd,ss Volume of distribution at steady state",[1]; [3],0.28 L/kg
same,"t½ α Half-life, compartment V1",[1]; [4],1.7 min
same,"t½ β Half-life, compartment V2",[1]; [4],18.2 min
same,"t½ γ Half-life, compartment V3",[1]; [4],133 min
same,pharmacokinetic profile (blood plasma kinetic),"[1]; rats, versus Gadovist®, FIG. 1",comparable to that of Gadovist®
same,appearance of the solution after autoclaving,[2],still clear and colorless
